Experiments:
[1] = tested on: global protein ubiquitination; assay: Global mass spectrometry-based analysis of protein ubiquitination; format: cell-based; details: global ubiquitination changes upon MLN4924 treatment (FIGS. 5E and 5F)
Method: (A) Endogenous RBPJ ubiquitination was measured under FBXO42 overexpression after immunoprecipitation with antibody against RBPJ and immunoblotted for Ub. Five percent lysate was used as the input control. (B) cSFB-RBPJ, hemagglutinin-ubiquitin (HA-Ub) and Myc-FBXO42 WT or AK mutant were cotransfected into HEK293T cells as indicated and treated with MG132 for 4 h. The cell lysates were incubated with S beads and analyzed by western blotting for RBPJ polyubiquitination detection. (C) Peptide sequence with ubiquitination modification identified in WT and FBXO42 KO cells. (D) HEK293T cells were cotransfected with Myc-FBXO42, HA-Ub WT along with cSFB-RBPJ WT or its lysine mutants as indicated. The cell lysates were incubated with S beads and analyzed by western blotting for RBPJ polyubiquitination detection. (E) Summary of identified peptides in global ubiquitination analysis upon MLN4924 treatment or FBXO42 depletion. (F) Percentage of ubiquitinated peptides among different groups. (G and H) Gene Ontology analysis of these proteins with differential ubiquitination modification. (I and J) Venn diagram showing the overlap between identified differential proteins with reported Notch interactors.
Global protein ubiquitination analysis was performed according to the manufacture's guidance (5562, CST). […]

JURKAT xenograft = format: in vivo; details: 30 mg/kg subcutaneously twice daily for 21 days, BALB/c nude mice (FIG. 13S-V)
Method: (A-H) Xenograft tumor growth studies were performed with WT or FBXO42-KO JURKAT (A-D) and HSB2 (E-H) cells. Mice were euthanized 4 weeks after tumor cell injection. The tumors were excised, photographed, and weighed. The volumes (B and F) and weights (C and G) of the tumors were measured, respectively. The mRNA levels of Notch target genes in tumors were determined by qPCR, respectively (D and H). (I-K) In vivo leukemia mouse model was established by injecting WT and FBXO42-KO JURKAT cells carrying GFP into NSG mice intravenously. The percentage of GFP^+ leukemia cells in peripheral blood was measured weekly by flow cytometry analysis (I) and summarized (K). […] (L-O) Spleens in mice from different groups were excised, a representative image is shown (L), and the spleen weight was measured (M). Tumor cell invasion was evaluated by measuring GFP intensity by fluorescence microscopy (N) and hemoxylin and eosin staining (O). […] The volumes (S) and weights (T) of the tumors and mouse weight (U) were measured. (A-O, S-V, n=5, P-R, n=10) Quantitative data are presented as mean±SEM. P values were calculated using two-tailed Student's t-tests. *P<0.05, **P<0.01, NS, not significant.
For the evaluation of MLN4924 efficacy in vivo, 6- to 8-week-old female BALB/c nude mice were inoculated with 5×10^6 JURKAT cells subcutaneously in the right flank, and tumor growth was monitored with caliper measurements. […]

JURKAT and HSB2 cells = assay: Soft agar colony formation assay (anchorage-independent growth); format: cell-based, human; details: JURKAT and HSB2, soft agar colony formation (FIG. 12O-R)
Method: (§1) FBXO42-KO cells were rescued with WT FBXO42 or F-box deletion mutant and were used in the following studies. (A-C) The mRNA levels of Notch target genes in the treated HEK293T (A), JURKAT (B) and HSB2 (C) cells were determined by qPCR. (D-G) The invasion abilities of the treated JURKAT (D) and HSB2 (F) cells were evaluated using a 3D culture system with Matrigel. Scale bars, 50 μm. The respective average diameter of the spheres in D and F was summarized, respectively (E and G). (H-K) Anchorage-independent growth of the rescued JURKAT (H) and HSB2 (J) cells was measured using a soft agar colony formation assay. The number of colonies in H and J was counted and summarized, respectively (I and K). (L) JURKAT and HSB2 cells were treated with MLN4924 in a concentration-gradient manner for 36 h and then evaluated for the cell viability using cell counting kit-8 assay. (M and N) The expression of Notch target genes in MLN4924-treated JURKAT (M) and HSB2 (N) cells were determined by qPCR. (O-R) Anchorage-independent growth of MLN4924-treated JURKAT (0) and HSB2 (Q) cells was measured using soft agar colony formation assays. The number of colonies was counted and summarized (P and R). (A-R, n=3) The data are shown as the mean±SEM from the independent experiments. P values were calculated using one-way ANOVA for multiple comparisons or two-tailed Student's t-tests. *P<0.05, ** P<0.01, *** P<0.001.

[2] = tested on: Notch target genes HES1, HES5 and c-MYC; assay: qPCR of Notch target genes in HEK293T cells; format: cell-based, human; details: mRNA, qPCR (FIG. 4O)
[3] = tested on: Notch target genes in JURKAT and HSB2 cells; assay: qPCR of Notch target genes in leukemia cells; format: cell-based, human; details: JURKAT and HSB2, qPCR (FIGS. 12M and 12N)
Method: as §1, with “P<0.001. […]” for “P<0.001.”

NS(=O)(=O)OC[C@@H]1C[C@@H](n2ccc3c(N[C@H]4CCc5ccccc54)ncnc32)C[C@@H]1O [MLN4924]
percentage of ubiquitinated peptides [1]: decreased
leukemia burden in vivo (tumor growth rate) (JURKAT xenograft): reduced
anchorage-independent growth of leukemia cells (JURKAT and HSB2 cells): diminished
expression of Notch target genes HES1, HES5 and c-MYC [2]: suppressed
Notch target gene expression of leukemia cells [3]: diminished
